Measured values taken from patent US20020137929A1, “1 - (3-heterocyclylphenyl) isothiourea, -isourea, -guanidine and -amidine herbicidal agents” (Intellectual Property Department, BASF Aktiengesellschaft, priority 1998, published 2002).

Legend:
AMBEL (Ragweed, Common) = experiment: Postemergence herbicidal evaluation; assay type: in vivo, Ambrosia artemisifolia; settings: for AMBEL herbicidal rating: postemergence
Method in brief: (§1)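 Scores (0–9) reflect plant stand, vigor, malformation, size, chlorosis and general appearance relative to control, read 4 to 5 weeks after treatment and averaged where tests were repeated. Application: about 0.0156–0.500 kg/ha sprayed at 40 psi onto two-week seedlings.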

CASOB (Sicklepod) [1] = experiment: Postemergence herbicidal evaluation; assay type: in vivo, Cassia obtusifolia; settings: for CASOB herbicidal rating: postemergence
Method in brief: as §1

GALAP (Galium) = experiment: Postemergence herbicidal evaluation; assay type: in vivo, Galium aparine; settings: for GALAP herbicidal rating: postemergence
Method in brief: as §1

[2] = tested on: IPOHE (Morningglory, Ivyleaf); experiment: Postemergence herbicidal evaluation; assay type: in vivo, Ipomoea hederacea; settings: for IPOHE herbicidal rating: postemergence
Method in brief: as §1

ABUTH (Velvetleaf) = experiment: Preemergence herbicidal evaluation; assay type: in vivo, Abutilon theophrasti; settings: rated 4-5 weeks after treatment
Method in brief: (§2)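 Sown cups got a single aqueous acetone spray of test compound (roughly 0.0156–0.500 kg/ha) before seedlings emerged. Evaluation, 4–5 weeks on, used a 0–9 visual scale covering plant stand, vigor, size, malformation, chlorosis and general appearance compared with controls.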

CASOB (Sicklepod) [3] = experiment: Preemergence herbicidal evaluation; assay type: in vivo, Cassia obtusifolia; settings: rated 4-5 weeks after treatment
Method in brief: as §2

[4] = tested on: IPOHE (Morningglory, Ivyleaf); experiment: Preemergence herbicidal evaluation; assay type: in vivo, Ipomoea hederacea; settings: rated 4-5 weeks after treatment
Method in brief: as §2

ECHCG (Barnyardgrass) = experiment: Preemergence herbicidal evaluation; assay type: in vivo, Echinochloa crus-galli; settings: rated 4-5 weeks after treatment
Method in brief: as §2

[5] = tested on: GLXMAW (Soybean, Williams); experiment: Preemergence herbicidal evaluation; assay type: in vivo, Glycine max, (L.) Merr. cv Williams; settings: rated 4-5 weeks after treatment
Method in brief: as §2

[6] = tested on: TRZAWR (Wheat, Winter, cv Riband); experiment: Preemergence herbicidal evaluation; assay type: in vivo, Triticum aestivum; settings: rated 4-5 weeks after treatment
Method in brief: as §2

ZEAMX (Corn, Field) = experiment: Preemergence herbicidal evaluation; assay type: in vivo, Zea mays; settings: rated 4-5 weeks after treatment
Method in brief: as §2

MOOVA (Monochoria) = experiment: Preemergence weed control under flooded paddy conditions; assay type: in vivo, Monochoria vaginalis; settings: rated 3-4 weeks after treatment
Method in brief: (§3)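 Using flooded silt loam (water 1.5 to 3 cm deep), seeds sown in the top 0.5 cm were exposed preemergence to compound pipetted into the flood at about 0.0313 to 0.500 kg/ha. Effects were scored 0-9 by eye three to four weeks later.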

[7] = tested on: SAGPY (Arrowhead (Pygmaea)); experiment: as above; assay type: in vivo, Sagittaria pygmaea; settings: rated 3-4 weeks after treatment
Method in brief: as §3

CYPIR (Rice Flatsedge) = experiment: Postemergence weed control under flooded paddy conditions; assay type: in vivo, Cyperus iria; settings: postemergence weeds, 3-4 weeks after treatment
Method in brief: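 Injury ratings (0–9 scale covering stand, vigor, malformation, size, chlorosis and overall appearance versus control) were made three to four weeks after treatment. Test material, about 0.0313 to 0.500 kg/ha a.i. in 50/50 v/v aqueous/acetone, was added to flood water 1.5 to 3 cm deep over 3 to 5 cm weeds and 1.5 to 2.5 leaf rice.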

SMILES: COC(=O)CCN1C(=O)CSC1=Nc1cc(-n2c(=O)cc(C(F)(F)F)n(C)c2=O)c(F)cc1Cl [Compound 28, Methyl 2-{{2-chloro-5-[3,6-dihydro-3-methyl-2,6-dioxo-4-(trifluoromethyl)-1(2H)-pyrimidinyl]-4-fluorophenyl}imino}-4-oxo-3-thiazolidinepropionate]
- Postemergence herbicidal rating AMBEL (AMBEL (Ragweed, Common); Rate 0.0158 kg/ha): 4.0
- Postemergence herbicidal rating AMBEL (AMBEL (Ragweed, Common); Rate 0.0315 kg/ha): 4.0
- Postemergence herbicidal rating AMBEL (AMBEL (Ragweed, Common); Rate 0.0630 kg/ha): 9.0
- Postemergence herbicidal rating CASOB (CASOB (Sicklepod) [1]; Rate 0.0158 kg/ha): 1.0
- Postemergence herbicidal rating CASOB (CASOB (Sicklepod) [1]; Rate 0.0315 kg/ha): 1.0
- Postemergence herbicidal rating CASOB (CASOB (Sicklepod) [1]; Rate 0.0630 kg/ha): 4.0
- Postemergence herbicidal rating GALAP (GALAP (Galium); Rate 0.0158 kg/ha): 3.0
- Postemergence herbicidal rating GALAP (GALAP (Galium); Rate 0.0315 kg/ha): 7.0
- Postemergence herbicidal rating GALAP (GALAP (Galium); Rate 0.0630 kg/ha): 8.0
- Postemergence herbicidal rating IPOHE ([2]; Rate 0.0158 kg/ha): 9.0
- Postemergence herbicidal rating IPOHE ([2]; Rate 0.0315 kg/ha): 9.0
- Postemergence herbicidal rating IPOHE ([2]; Rate 0.0630 kg/ha): 9.0
- Preemergence herbicidal rating ABUTH (ABUTH (Velvetleaf); rate 0.1250 kg/ha): 3.0
- Preemergence herbicidal rating ABUTH (ABUTH (Velvetleaf); rate 0.2500 kg/ha): 9.0
- Preemergence herbicidal rating CASOB (CASOB (Sicklepod) [3]; rate 0.0625 kg/ha): 0.0
- Preemergence herbicidal rating CASOB (CASOB (Sicklepod) [3]; rate 0.1250 kg/ha): 0.0
- Preemergence herbicidal rating CASOB (CASOB (Sicklepod) [3]; rate 0.2500 kg/ha): 0.0
- Preemergence herbicidal rating IPOHE ([4]; rate 0.0625 kg/ha): 0.0
- Preemergence herbicidal rating IPOHE ([4]; rate 0.1250 kg/ha): 2.0
- Preemergence herbicidal rating IPOHE ([4]; rate 0.2500 kg/ha): 9.0
- Preemergence herbicidal rating ECHCG (ECHCG (Barnyardgrass); rate 0.0625 kg/ha): 0.0
- Preemergence herbicidal rating ECHCG (ECHCG (Barnyardgrass); rate 0.1250 kg/ha): 9.0
- Preemergence herbicidal rating ECHCG (ECHCG (Barnyardgrass); rate 0.2500 kg/ha): 9.0
- Preemergence herbicidal rating GLXMAW ([5]; rate 0.0625 kg/ha): 3.0
- Preemergence herbicidal rating GLXMAW ([5]; rate 0.1250 kg/ha): 5.0
- Preemergence herbicidal rating GLXMAW ([5]; rate 0.2500 kg/ha): 9.0
- Preemergence herbicidal rating TRZAWR ([6]; rate 0.0625 kg/ha): 0.0
- Preemergence herbicidal rating TRZAWR ([6]; rate 0.2500 kg/ha): 8.0
- Preemergence herbicidal rating ZEAMX (ZEAMX (Corn, Field); rate 0.0625 kg/ha): 5.0
- Preemergence herbicidal rating ZEAMX (ZEAMX (Corn, Field); rate 0.1250 kg/ha): 9.0
- Preemergence herbicidal rating ZEAMX (ZEAMX (Corn, Field); rate 0.2500 kg/ha): 8.0
- Herbicidal rating MOOVA (MOOVA (Monochoria); 0.0313 kg/ha): 9.0
- Herbicidal rating MOOVA (MOOVA (Monochoria); 0.0625 kg/ha): 9.0
- Herbicidal rating MOOVA (MOOVA (Monochoria); 0.1250 kg/ha): 9.0
- Herbicidal rating MOOVA (MOOVA (Monochoria); 0.2500 kg/ha): 9.0
- Herbicidal rating SAGPY ([7]; 0.0313 kg/ha): 0.0
- Herbicidal rating SAGPY ([7]; 0.0625 kg/ha): 0.0
- Herbicidal rating SAGPY ([7]; 0.1250 kg/ha): 0.0
- Herbicidal rating SAGPY ([7]; 0.2500 kg/ha): 0.0
- Herbicidal rating CYPIR (CYPIR (Rice Flatsedge); rate 0.0313 kg/ha): 9.0
- Herbicidal rating CYPIR (CYPIR (Rice Flatsedge); rate 0.0625 kg/ha): 9.0
- Herbicidal rating CYPIR (CYPIR (Rice Flatsedge); rate 0.1250 kg/ha): 9.0
- Herbicidal rating CYPIR (CYPIR (Rice Flatsedge); rate 0.2500 kg/ha): 9.0

SMILES: CCOC(=O)CN1C(=O)C(=C(C)C)S/C1=N/c1cc(-n2c(=O)cc(C(F)(F)F)n(C)c2=O)c(F)cc1Cl [Compound 20, Ethyl 2-{{2-chloro-5-[3,6-dihydro-3-methyl-2,6-dioxo-4-(trifluoromethyl)-1(2H)-pyrimidinyl]-4-fluorophenyl}imino}-5-isopropylidene-4-oxo-3-thiazolidineacetate]
- AMBEL herbicidal rating (AMBEL (Ragweed, Common); rate 0.0158 kg/ha): 4.0
- AMBEL herbicidal rating (AMBEL (Ragweed, Common); rate 0.0315 kg/ha): 5.0
- AMBEL herbicidal rating (AMBEL (Ragweed, Common); rate 0.0630 kg/ha): 6.0
- CASOB herbicidal rating (CASOB (Sicklepod) [1]; rate 0.0158 kg/ha): 0.0
- CASOB herbicidal rating (CASOB (Sicklepod) [1]; rate 0.0315 kg/ha): 0.0
- CASOB herbicidal rating (CASOB (Sicklepod) [1]; rate 0.0630 kg/ha): 2.0
- GALAP herbicidal rating (GALAP (Galium); rate 0.0158 kg/ha): 1.0
- GALAP herbicidal rating (GALAP (Galium); rate 0.0315 kg/ha): 2.0
- GALAP herbicidal rating (GALAP (Galium); rate 0.0630 kg/ha): 6.0
- IPOHE herbicidal rating ([2]; rate 0.0158 kg/ha): 9.0
- IPOHE herbicidal rating ([2]; rate 0.0315 kg/ha): 3.0
- IPOHE herbicidal rating ([2]; rate 0.0630 kg/ha): 9.0
- ABUTH preemergence herbicidal rating (ABUTH (Velvetleaf); rate 0.0625 kg/ha): 0.0
- ABUTH preemergence herbicidal rating (ABUTH (Velvetleaf); rate 0.1250 kg/ha): 9.0
- ABUTH preemergence herbicidal rating (ABUTH (Velvetleaf); rate 0.2500 kg/ha): 9.0
- CASOB preemergence herbicidal rating (CASOB (Sicklepod) [3]; rate 0.0625 kg/ha): 0.0
- CASOB preemergence herbicidal rating (CASOB (Sicklepod) [3]; rate 0.1250 kg/ha): 0.0
- CASOB preemergence herbicidal rating (CASOB (Sicklepod) [3]; rate 0.2500 kg/ha): 9.0
- IPOHE preemergence herbicidal rating ([4]; rate 0.0625 kg/ha): 0.0
- IPOHE preemergence herbicidal rating ([4]; rate 0.1250 kg/ha): 0.0
- IPOHE preemergence herbicidal rating ([4]; rate 0.2500 kg/ha): 2.0
- ECHCG preemergence herbicidal rating (ECHCG (Barnyardgrass); rate 0.0625 kg/ha): 0.0
- ECHCG preemergence herbicidal rating (ECHCG (Barnyardgrass); rate 0.1250 kg/ha): 0.0
- ECHCG preemergence herbicidal rating (ECHCG (Barnyardgrass); rate 0.2500 kg/ha): 0.0
- GLXMAW preemergence herbicidal rating ([5]; rate 0.0625 kg/ha): 0.0
- GLXMAW preemergence herbicidal rating ([5]; rate 0.1250 kg/ha): 0.0
- GLXMAW preemergence herbicidal rating ([5]; rate 0.2500 kg/ha): 4.0
- TRZAWR preemergence herbicidal rating ([6]; rate 0.0625 kg/ha): 0.0
- TRZAWR preemergence herbicidal rating ([6]; rate 0.1250 kg/ha): 0.0
- TRZAWR preemergence herbicidal rating ([6]; rate 0.2500 kg/ha): 0.0
- ZEAMX preemergence herbicidal rating (ZEAMX (Corn, Field); rate 0.0625 kg/ha): 0.0
- ZEAMX preemergence herbicidal rating (ZEAMX (Corn, Field); rate 0.1250 kg/ha): 0.0
- ZEAMX preemergence herbicidal rating (ZEAMX (Corn, Field); rate 0.2500 kg/ha): 0.0
- Herbicidal rating MOOVA (MOOVA (Monochoria); 0.1160 kg/ha): 9.0
- Herbicidal rating MOOVA (MOOVA (Monochoria); 0.2310 kg/ha): 9.0
- Herbicidal rating MOOVA (MOOVA (Monochoria); 0.4630 kg/ha): 9.0
- Herbicidal rating SAGPY ([7]; 0.1160 kg/ha): 0.0
- Herbicidal rating SAGPY ([7]; 0.2310 kg/ha): 0.0
- Herbicidal rating SAGPY ([7]; 0.4630 kg/ha): 3.0
- Herbicidal rating CYPIR (CYPIR (Rice Flatsedge); rate 0.1160 kg/ha): 0.0
- Herbicidal rating CYPIR (CYPIR (Rice Flatsedge); rate 0.2310 kg/ha): 0.0
- Herbicidal rating CYPIR (CYPIR (Rice Flatsedge); rate 0.4630 kg/ha): 0.0
